Reference: patent publication US6887879B2, “Pharmaceutical combination of antiviral agents” (priority 1999, dated 2005)
Like-named read-outs stand apart in the source and are kept apart here.

Columns and labels:
[1] = Cytotoxicity, [3H]-thymidine uptake, Molt-4; assay type: cell-based; details: human, Molt-4 cells
Procedure: (§1) The cellular toxicity of the BCH compounds were assessed on various cells using [^3H]-thymidine uptake. The various cells, including Molt-4, HT1080, DU-145, HepG 2 and HSF, were plated at a concentration of 1-2×10^3 cells per well (96 well plates). However, PHA-stimulated PBMCs were cultured at a concentration of 4×10^4. After a 24 hr incubation period, 10-fold serial diluted compounds (10^−4 M to 10^−10 M) were added to the culture medium and the cells were further incubated for 72 hrs. [^3H]-thymidine was added during the final 18 hr incubation period. After incubation with the [^3H]-thymidine, the cells were washed once with PBS, treated with trypsin it the cells were adherent, and then resuspended in water (hypotonic lysing of cells) The cellular extract was applied directly to a Tomtec Harvester 96. Using this instrument the extracted DNA is adsorbed onto filters, washed and the incorporated [^3H]-thymidine is then counted.

[2] = Cytotoxicity, WST-1 cell viability assay; assay type: cell-based, human; details: human, CBMCs, MT-2, H9, Jurkat and U937 cells; WST-1 cell viability assay
Procedure: The cellular toxicity of the compounds was also tested by WST-1 staining through assessing proliferation of MT-2, H9, Jurkat, U937, and CBMCs. The established cell lines were cultured in RPMI medium in 96-well plates at a density of 5×10^4 cells/well while CBMCs were plated at a concentration of 0.5×10^6/well. A 10-fold serial diluted (10^−4−10^−7 M) compound was added at day zero. At day 4, the cells were passaged by changing half medium containing appropriately diluted compound. The cell activities were assessed at day 7 using the WST-1 reagent (Boehringer Mannheim) following the protocol provided by the supplier.

[3] = Cytotoxicity, [3H]-thymidine uptake, HepG2; assay type: cell-based; details: human, HepG2 cells
Procedure: as §1

[4] = Cytotoxicity, [3H]-thymidine uptake, HSF; assay type: cell-based; details: human, human skin fibroblasts (HSF)
Procedure: as §1

HIV-1IIIB = assay: Anti-HIV-1 antiviral assay, laboratory strain HIV-1IIIB, RT activity in culture supernatants
Procedure: Most experiments were performed with a laboratory strain HIV-1III. […] The cells were incubated with virus using the indicated multiplicity of infection (MOI) for 2-3 hrs. The MOI used for each experiment was dependent upon the cell line and virus strain used, and was generally in the range of 0.005 to 0.5. For example, in assays performed using the established cell line MT-2, HIV-1IIIB at an MOI of 0.005 was used to infect cells. The unbound virus was then removed by washing the cells, followed by plating the cells into a 96-well plate. The infected cells were cultured in the presence of a serial concentrations of the test compound for 5-7 days. The anti-HIV-1 efficacy was determined by testing for HIV-1 RT activity in the cell culture supernatants. All assays were performed in duplicate and at least two independent experiments were performed. […] The susceptibilities of the HIV-1 variants to antiretroviral agents are expressed as the mean of the EC50 determinations.

[5] = Cytotoxicity, [3H]-thymidine uptake, DU145; assay type: cell-based; details: human, DU145 cells
Procedure: as §1

[6] = Cytotoxicity, [3H]-thymidine uptake, HT-1080; assay type: cell-based; details: human, HT-1080 cells
Procedure: as §1

wt HIV-1 RT [7] = target: T1, wt HIV-1 RT (Human immunodeficiency virus type 1 group M subtype B, UniProt P04585); assay: Chain elongation/termination assay; assay type: biochemical; details: for chain termination / full-length products, in words: HIV-PBS template, dPR primer, raising inhibitor concentration
T1 construct: Wild type (wt) version of recombinant HIV-1 RT were expressed with a histidine tag; histidine tag; made in house; host or cells: E. coli
Procedure: RT inhibition assay. The inhibition of HIV-1 RT RNA dependent DNA polymerase activity of DXG-TP was assessed under steady-state enzymatic kinetics by employing homopolymeric RNA templates/DNA primers (T/P) and a heteropolymeric RNA template/DNA primer. The heteropolymeric RNA template contains the HIV-1 primer binding sequence, US and R regions (designated as HIV-PBS). […] The oligodeoxynucleotide primer (dPR) is an 18-mer (5′-[…]-3′) which is complementary to the HIV-1 primer binding sequence. […] Inhibition of dNTP incorporation/chain termination. […] HIV-PBS RNA template and dPR DNA primer were used in this system. The RT reactions were performed in […] containing 50 mM Tris (pH 7.8), 75 mM KCl, 10 mM MgCl2, 100 μM of dNTPs. […] The reactions were allowed to proceed at 37° C. for 60 min in the presence or absence of inhibitors. The transcribed DNA products were separated on a 5% denaturing polyacrylamide gel and visualized by exposure to X-ray film.
The chain elongation/termination assay provides a method to directly visualize the products of incorporation of dideoxynucleotide monophosphates into nascent DNA by monitoring the reaction products using polyacrylamide gel electrophoresis. The experiment was performed using wt HIV-1 RT, and HIV-PBS heteropolymeric template, and [^32p]ATP labeled dPR primer in the presence of various concentrations of RT inhibitor. […] As comparison, NNRTI nevirapine was also used in the assay.

wt HIV-1 RT [8] = target: T1, wt HIV-1 RT; assay: RT inhibition assay, RNA dependent DNA polymerase activity; assay type: biochemical
Procedure: Wild type (wt) version of recombinant HIV-1 RT were expressed with a histidine tag in an E. coli protein expression system.
RT inhibition assay. The inhibition of HIV-1 RT RNA dependent DNA polymerase activity of DXG-TP was assessed under steady-state enzymatic kinetics by employing homopolymeric RNA templates/DNA primers (T/P) and a heteropolymeric RNA template/DNA primer. The heteropolymeric RNA template contains the HIV-1 primer binding sequence, US and R regions (designated as HIV-PBS). […] The oligodeoxynucleotide primer (dPR) is an 18-mer (5′-[…]-3′) which is complementary to the HIV-1 primer binding sequence. […] The reverse transcription reaction contained final concentrations of 50 mM Tris-HCl, pH 7.8, 60 mM KCl, 10 mM MgCl2, 0.1 U/ml homopolymeric T/P and 5 μM [^3H]dNTP substrate or 25 nM HIV-PBS/dPR and 5 μM each of dTTP, dCTP, dGTP and [-^32P]dATP in […]. […] Inhibition of dNTP incorporation/chain termination. The effect of DXG-TP on RT activity was also assessed using the chain termination/dNTP incorporation assay in which inhibition of nascent DNA synthesis (chain termination) was monitored based upon cDNA synthesis as previously described (Arts et al., 1993; J. Biol. Hem. 269:14672-14680 and Gu et al., 1995, Proc. Natl. Acad. Sci. USA 92:2760-2764). HIV-PBS RNA template and dPR DNA primer were used in this system. The RT reactions were performed in […] containing 50 mM Tris (pH 7.8), 75 mM KCl, 10 mM MgCl2, 100 μM of dNTPs. The HIV-PBS RNA template (50 nM) and [−^32P]-ATP labeled oligodeoxynucleotide primer (125 nM) were included in the reaction. The mixture was first denatured at 85° C. for 2 minutes, then cooled to 55° C. for 8 min, and finally cooled to 37° C. at which time recombinant HIV RT was added (42.5 nM). The reactions were allowed to proceed at 37° C. for 60 min in the presence or absence of inhibitors. The transcribed DNA products were separated on a 5% denaturing polyacrylamide gel and visualized by exposure to X-ray film.

[9] = Cytotoxicity, [3H]-thymidine uptake, PBMC; assay type: cell-based; details: human, PHA-stimulated PBMCs
Procedure: as §1

[10] = template/primer HIV-PBS/dPR, substrate dNTPs, each 5 μM
[11] = template/primer poly(rC).oligo(dG)12-15, substrate dGTP

Q: With `Cc1cn([C@H]2C[C@H](N=[N+]=[N-])[C@@H](CO)O2)c(=O)[nH]c1=O` [AZT, zidovudine, reference compound] as the compound, how does the CC50 at 72 h [1] read?
A: 3 µM

Q: And the CC50 at 7 days [2]?
A: 74 µM

Q: What about the CC50 at 72 h [3] of the same compound?
A: 3 µM

Q: And the CC50 at 72 h [4]?
A: > 10 µM

Q: And the EC50 (HIV-1IIIB; Human immunodeficiency virus 1, Jurkat, read-out: EC50, mean values ± SD)?
A: 0.011 ± 0.007 µM

Q: And the EC50 (HIV-1IIIB; Human immunodeficiency virus 1, MT2, read-out: EC50, mean values ± SD)?
A: 0.0076 ± 0.0044 µM

Q: And the EC50 (HIV-1IIIB; Human immunodeficiency virus 1, MT4, read-out: EC50, mean values ± SD)?
A: 0.008 ± 0.005 µM

Q: What about the EC50 (HIV-1IIIB; Human immunodeficiency virus 1, U-937) of the same compound?
A: 0.025 µM

Q: And the EC50 (HIV-1IIIB; Human immunodeficiency virus 1, read-out: EC50, mean values ± SD)?
A: 0.0051 ± 0.003 µM

Q: What about the CC50 at 72 h [5] of the same compound?
A: > 10 µM

Q: What about the CC50 at 72 h [6] of the same compound?
A: 5 µM

Q: With `Cc1cn([C@H]2C[C@H](N=[N+]=[N-])[C@@H](COP(=O)(O)OP(=O)(O)OP(=O)(O)O)O2)c(=O)[nH]c1=O` [AZT-TP] as the compound, how does the “chain termination / full-length products, in words” value (wt HIV-1 RT [7]) read?
A: caused increasing chain termination but decreasing full-length products

Q: Which results are given for `Nc1nc2c(ncn2C2COC(COP(=O)(O)OP(=O)(O)OP(=O)(O)O)O2)c(=O)[nH]1` (centres unmarked) [DXG-TP, DXG 5′-triphosphate]?
A: mode of RT inhibition, in words (wt HIV-1 RT [8]): competition with natural substrate; IC50 (wt HIV-1 RT [8]; [10]): 0.062 ± 0.007 µM; IC50 (wt HIV-1 RT [8]; template/primer poly(rA).oligo(dT)12-18, substrate dTTP): > 10 µM; IC50 (wt HIV-1 RT [8]; [11]): 0.012 µM; chain termination / full-length products, in words (wt HIV-1 RT [7]): caused increasing chain termination but decreasing full-length products; inhibitory effect on RT activity by band intensity, compared, in words (wt HIV-1 RT [7]; cell-free assay): the same as ddGTP and AZT-TP at the same concentrations, but higher than lamivudine-TP

Q: With `Nc1ccn([C@H]2CC[C@@H](CO)O2)c(=O)n1` [ddC, 2′,3′-dideoxycytidine] as the compound, how does the CC50 at 72 h [1] read?
A: 2 µM

Q: And the CC50 at 7 days [2]?
A: 29 µM

Q: What about the CC50 at 72 h [3] of the same compound?
A: 7 µM

Q: What about the CC50 at 72 h [9] of the same compound?
A: 32.5 µM

Q: What about the CC50 at 72 h [5] of the same compound?
A: 5 µM

Q: What about the CC50 at 72 h [6] of the same compound?
A: 2 µM

Q: Which IC50 (wt HIV-1 RT [8]; [10]) does the source give for `Nc1nc2c(ncn2[C@H]2CC[C@@H](COP(=O)(O)OP(=O)(O)OP(=O)(O)O)O2)c(=O)[nH]1` [ddGTP, dideoxyguanosine triphosphate, reference compound] here?
A: 0.074 ± 0.008 µM

Q: What about the IC50 (wt HIV-1 RT [8]; [11]) of the same compound?
A: 0.011 ± 0.0007 µM
